Data reported in ChEMBL document CHEMBL5532716, “UPLC-Q-TOF-MS/MS-Based Targeted Discovery of Chetomin Analogues from Chaetomium cochliodes” (J Nat Prod, 2024).

How the values were obtained:
HeLa = assay: Cytotoxicity against human HeLa cells assessed as inhibition of cell viability by MTT assay; type: functional, cell-based
A549 = assay: Cytotoxicity against human A549 cells assessed as inhibition of cell viability by MTT assay; type: functional, cell-based

| Compound | IC50 (HeLa) | IC50 (A549) |
| --- | --- | --- |
| CS[C@@]12Cc3c([nH]c4ccccc34)[C@@](CO)(NC1=O)C(=O)N2 | 25 µM | 25 µM |
| CN1C(=O)[C@]2(Cc3cn([C@]45C[C@@]67SS[C@@](CO)(C(=O)N6[C@H]4Nc4ccccc45)N(C)C7=O)c4ccccc34)SS[C@@]1(CO)C(=O)N2C [CHETOMIN] | 2.4 µM | 3.5 µM |
| CS[C@]1(CO)NC(=O)[C@](Cc2c[nH]c3ccccc23)(SC)NC1=O [CHETOSEMINUDIN C] | 33 µM | 30 µM |
| CNC(=O)[C@@]12C[C@]3(n4cc(C[C@@]56SSSS[C@@](CO)(C(=O)N5C)N(C)C6=O)c5ccccc54)c4ccccc4N[C@@H]3N1C(=O)C(=O)N[C@H]2C | 1.6 µM | 1.9 µM |
| CS[C@@]1(CO)C(=O)N/C(=C\c2c[nH]c3ccccc23)C(=O)N1C | 30 µM | 30 µM |
| CN1C(=O)[C@]2(Cc3c[nH]c4ccccc34)SSSS[C@@]1(CO)C(=O)N2C | 1.9 µM | 2.2 µM |
